{"source": "paper PMC10892375", "about": "“Determination of the Cannabinoid CB1 Receptor’s Positive Allosteric Modulator Binding Site through Mutagenesis Studies” (Pharmaceuticals, 2024)", "assay_type_in_all_cases": "cell-based", "key": {"hCB1 mutant I245A^4.54": {"target": "T1, hCB1 mutant I245A^4.54 (Homo sapiens, UniProt P21554, I245A)", "T1 construct": "expressed in transfected cells; host or cells: HEK293", "T1 sequence (P21554 whole entry I245A)": "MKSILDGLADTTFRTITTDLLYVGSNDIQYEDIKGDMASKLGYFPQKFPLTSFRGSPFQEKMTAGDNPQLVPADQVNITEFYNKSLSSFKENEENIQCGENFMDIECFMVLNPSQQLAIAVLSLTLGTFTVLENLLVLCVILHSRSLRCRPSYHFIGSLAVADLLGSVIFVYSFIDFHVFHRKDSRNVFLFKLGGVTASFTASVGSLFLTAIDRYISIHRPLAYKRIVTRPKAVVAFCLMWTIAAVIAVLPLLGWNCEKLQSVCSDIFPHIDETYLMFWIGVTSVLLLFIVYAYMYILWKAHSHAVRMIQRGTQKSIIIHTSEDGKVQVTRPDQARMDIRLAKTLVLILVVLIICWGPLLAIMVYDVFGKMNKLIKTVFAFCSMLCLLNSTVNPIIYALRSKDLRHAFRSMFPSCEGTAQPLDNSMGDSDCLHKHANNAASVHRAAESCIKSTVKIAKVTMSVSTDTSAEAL", "assay": "pIRES G protein dissociation BRET assay, I245A mutant", "conditions": "10 μM ligand alone", "protocol": "(§1) Mutagenesis studies using the pIRES G protein dissociation assay were performed using human embryonic kidney 293 (HEK293) wild-type cells transiently transfected with pplss-3HA-hCB1 [31] or modified receptor. All cells were cultured in Dulbecco’s Modified Eagle’s Medium (DMEM) supplemented with 10% fetal bovine serum (FBS), grown in […] vented-cap flasks, and maintained in a 37° C incubator at 5% CO2.\n(§2) Mutants of pplss-3HA-hCB1 (WT, pEF-V4-HisA (pEF4a) construct) were generated using a modified QuikChange® (Stratagene, San Diego, CA, USA) site-directed mutagenesis approach using KAPA HiFi Hotstart Polymerase (KAPA Biosystems, Roche, Basel, Switzerland). Briefly, single-stranded primers used to modify one or two base pairs within the target amino acid using PCR were purchased from Integrated DNA Technologies (IDT, Coralville, IA, USA). All pplss-hCB1 mutants were generated using the pplss-3HA-hCB1 pEF4a as parental DNA. PCR products were generated using recommended cycling conditions and treated with Dpn1 (New England Biolabs, Ipswich, MA, USA) overnight at 37° C to digest methylated parental DNA. PCR products were electrophoresed and run on an agarose gel (1% (w.v^−1) agarose, HydraGene, Piscataway, NJ, USA) containing 0.25 μg/mL ethidium bromide (Sigma-Aldrich, St. Louis, MO, USA). Gels were run in 40 mM TRIS-acetate buffer containing […] (pH 8.3) at 100 V for 30 min, maximum current and included a 1kb+ DNA ladder (Invitrogen, Thermo Fisher Scientific, Carlsbad, CA, USA) for reference. Gels were imaged using an UVTech Alliance Q9 Mini transilluminator (UVTech Alliance, Cambridge, UK). Digested products were then used to transform NEB 5α competent E. coli cells in accordance with manufacturer’s instructions. Briefly, transformed PCR products were grown overnight on 8.5 mL Luria Broth agar plates (containing 100 μg/mL ampicillin) at 37° C. Single bacterial colonies were picked and inoculated in Luria Broth (containing 100 μg/mL ampicillin) and grown overnight in a shaking incubator at 37° C. Plasmids were then harvested and purified using a Qiagen miniprep kit (Qiagen, Hilden, Germany) and validated using sequencing (Genetics Analysis Service, University of Otago, Dunedin, New Zealand).\n(§3) Dissociation of the G protein heterotrimer, specifically Gαi1, Gβ1, and Gγ2, was investigated using a bioluminescence resonance energy transfer (BRET) assay with the pIRES biosensor first described by and adapted by.\n(§4) Briefly, 3 × 10^6 WT HEK293 cells were seeded into 10 cm culture dishes (Corning, Corning, NY, USA; one dish for the control receptor and one for each modified receptor) and incubated at 37 °C for 24 h to gain 50–60% confluency. Culture medium was then replaced and transfection mixtures containing 3 μg pIRES vector and 1 μg receptor (either pplss-hCB1 or modified receptor) were prepared (4 μg total DNA). Plasmids were initially diluted in sterile Milli-Q water before being diluted in OptiMEM reduced serum medium (Thermo Fisher Scientific, Waltham, MA, USA) and combined with […] polyethylenimine (PEI)-max (1:9 DNA:PEI-max ratio) and incubated at room temperature for 20 min. Transfection mixtures were then added to cells via dropwise addition, and cells were incubated at 37 °C for 24 h. Transfected cells were lifted and plated at 50,000 cells/well into poly-d-lysine (PDL; Sigma-Aldrich) coated white 96-well CulturPlates (PerkinElmer, Waltham, MA, USA) and incubated for a further 24 h at 37 °C.\n(§5) To assay, the culture medium was aspirated and cells were washed with phosphate buffered saline (PBS) and replaced with BRET assay medium (phenol red free DMEM containing 25 mM HEPES and supplemented with 1 mg/mL bovine serum albumin; BSA, MP Biomedicals, Auckland, New Zealand) for 30 min prior to drug addition (serum starve). Drugs were prepared at 10 × concentration in BRET assay medium, combined in a polypropylene V-bottom plate, and incubated at 37° C prior to drug stimulation."}, "hCB1 mutant F191A^3.27": {"target": "T2, hCB1 mutant F191A^3.27 (Homo sapiens, UniProt P21554, F191A)", "T2 construct": "expressed in transfected cells; host or cells: HEK293", "T2 sequence (P21554 whole entry F191A)": "as the sequence (P21554 whole entry I245A) above, with F191A, A245I counted along it", "assay": "pIRES G protein dissociation BRET assay, F191A mutant", "protocol": "as §1, §2, §3, §4, §5"}, "hCB1 mutant Y172A^2.59": {"target": "T3, hCB1 mutant Y172A^2.59 (Homo sapiens, UniProt P21554, Y172A)", "T3 construct": "expressed in transfected cells; host or cells: HEK293", "T3 sequence (P21554 whole entry Y172A)": "as the sequence (P21554 whole entry I245A) above, with Y172A, A245I counted along it", "assay": "pIRES G protein dissociation BRET assay, Y172A mutant", "conditions": "10 μM ligand alone", "protocol": "as §1, §2, §3, §4, §5"}, "hCB1 mutant L209A^3.45": {"target": "T4, hCB1 mutant L209A^3.45 (Homo sapiens, UniProt P21554, L209A)", "T4 construct": "expressed in transfected cells; host or cells: HEK293", "T4 sequence (P21554 whole entry L209A)": "as the sequence (P21554 whole entry I245A) above, with L209A, A245I counted along it", "assay": "pIRES G protein dissociation BRET assay, L209A mutant", "conditions": "10 μM ligand alone", "protocol": "as §1, §2, §3, §4\nas §5, with “stimulation. […]” for “stimulation.”"}, "hCB1 mutant F408A^8.54": {"target": "T5, hCB1 mutant F408A^8.54 (Homo sapiens, UniProt P21554, F408A)", "T5 construct": "expressed in transfected cells; host or cells: HEK293", "T5 sequence (P21554 whole entry F408A)": "as the sequence (P21554 whole entry I245A) above, with A245I, F408A counted along it", "assay": "pIRES G protein dissociation BRET assay, F408A mutant", "conditions": "10 μM ligand alone", "protocol": "as §1, §2, §3, §4, §5"}, "hCB1 mutant L404A^8.50": {"target": "T6, hCB1 mutant L404A^8.50 (Homo sapiens, UniProt P21554, L404A)", "T6 construct": "expressed in transfected cells; host or cells: HEK293", "T6 sequence (P21554 whole entry L404A)": "as the sequence (P21554 whole entry I245A) above, with A245I, L404A counted along it", "assay": "pIRES G protein dissociation BRET assay, L404A mutant", "conditions": "10 μM ligand alone", "protocol": "as §1, §2, §3, §4, §5"}, "hCB1 mutant H154A^2.41": {"target": "T7, hCB1 mutant H154A^2.41 (Homo sapiens, UniProt P21554, H154A)", "T7 construct": "expressed in transfected cells; host or cells: HEK293", "T7 sequence (P21554 whole entry H154A)": "as the sequence (P21554 whole entry I245A) above, with H154A, A245I counted along it", "assay": "pIRES G protein dissociation BRET assay, H154A mutant", "conditions": "10 μM ligand alone", "protocol": "as §1, §2, §3, §4, §5"}, "hCB1 mutant K232A^4.41": {"target": "T8, hCB1 mutant K232A^4.41 (Homo sapiens, UniProt P21554, K232A)", "T8 construct": "expressed in transfected cells; host or cells: HEK293", "T8 sequence (P21554 whole entry K232A)": "as the sequence (P21554 whole entry I245A) above, with K232A, A245I counted along it", "assay": "pIRES G protein dissociation BRET assay, K232A mutant", "conditions": "10 μM ligand alone", "protocol": "as §1, §2, §3, §4, §5"}, "hCB1 mutant F237A^4.46": {"target": "T9, hCB1 mutant F237A^4.46 (Homo sapiens, UniProt P21554, F237A)", "T9 construct": "expressed in transfected cells; host or cells: HEK293", "T9 sequence (P21554 whole entry F237A)": "as the sequence (P21554 whole entry I245A) above, with F237A, A245I counted along it", "assay": "pIRES G protein dissociation BRET assay, F237A mutant", "conditions": "10 μM ligand alone", "protocol": "as §1, §2, §3, §4, §5"}, "hCB1 mutant R220A^3.56": {"target": "T10, hCB1 mutant R220A^3.56 (Homo sapiens, UniProt P21554, R220A)", "T10 construct": "expressed in transfected cells; host or cells: HEK293", "T10 sequence (P21554 whole entry R220A)": "as the sequence (P21554 whole entry I245A) above, with R220A, A245I counted along it", "assay": "pIRES G protein dissociation BRET assay, R220A mutant", "conditions": "10 μM ligand alone", "protocol": "as §1, §2, §3, §4, §5"}, "hCB1 mutant S173A^2.60": {"target": "T11, hCB1 mutant S173A^2.60 (Homo sapiens, UniProt P21554, S173A)", "T11 construct": "expressed in transfected cells; host or cells: HEK293", "T11 sequence (P21554 whole entry S173A)": "as the sequence (P21554 whole entry I245A) above, with S173A, A245I counted along it", "assay": "pIRES G protein dissociation BRET assay, S173A mutant", "conditions": "10 μM ligand alone", "protocol": "as §1, §2, §3, §4, §5"}}, "data": [{"molecule": "Cc1ccc2c(C(C[N+](=O)[O-])c3cccs3)c(-c3ccccc3)[nH]c2c1", "note": "(stereo not drawn) [ZCZ011, 6-Methyl-3-(2-nitro-1-(thiophen-2-yl)ethyl)-2-phenyl-1 H-indole]", "values": [{"measurement": "G protein dissociation, AUC of 10 μM compound (maximal response)", "setting": "hCB1 mutant I245A^4.54", "value": "−130.4 ± 12.9"}, {"measurement": "G protein dissociation, AUC of 10 μM compound (maximal response)", "setting": "hCB1 mutant F191A^3.27; 10 μM ligand alone", "value": "35.0 ± 8.4"}, {"measurement": "Allosteric agonism: G protein dissociation in the absence of an orthosteric ligand", "setting": "hCB1 mutant F191A^3.27; 10 μM, result in words", "value": "abolished"}, {"measurement": "G protein dissociation, AUC of 10 μM compound (maximal response)", "setting": "hCB1 mutant Y172A^2.59", "value": "−142.1 ± 14.4"}, {"measurement": "G protein dissociation, AUC of 10 μM compound (maximal response)", "setting": "hCB1 mutant L209A^3.45", "value": "−34.4 ± 2.9"}, {"measurement": "G protein dissociation, AUC of 10 μM compound (maximal response)", "setting": "hCB1 mutant F408A^8.54", "value": "−116.9 ± 10.1"}, {"measurement": "G protein dissociation, AUC of 10 μM compound (maximal response)", "setting": "hCB1 mutant L404A^8.50", "value": "−85.2 ± 7.3"}, {"measurement": "G protein dissociation, AUC of 10 μM compound (maximal response)", "setting": "hCB1 mutant H154A^2.41", "value": "−129.4 ± 5.1"}, {"measurement": "G protein dissociation, AUC of 10 μM compound (maximal response)", "setting": "hCB1 mutant K232A^4.41", "value": "−140.0 ± 7.3"}, {"measurement": "G protein dissociation, AUC of 10 μM compound (maximal response)", "setting": "hCB1 mutant F237A^4.46", "value": "−64.2 ± 4.1"}, {"measurement": "G protein dissociation, AUC of 10 μM compound (maximal response)", "setting": "hCB1 mutant R220A^3.56", "value": "−95.7 ± 7.7"}, {"measurement": "G protein dissociation, AUC of 10 μM compound (maximal response)", "setting": "hCB1 mutant S173A^2.60", "value": "−144.2 ± 6.8"}]}]}
